Test results: ChEMBL document CHEMBL5137065, “Recent Advances with KDM4 Inhibitors and Potential Applications” (J Med Chem, 2022)

Tests used:
[1] = molecular target: T1, Lysine-specific demethylase 4C (Homo sapiens, UniProt Q9H3R0); experiment: Inhibition of human KDM4C (1 to 347 residues) catalytic domain measured formaldehyde dehydrogenase (FDH)-coupled fluorescence assay
T1 sequence (Q9H3R0 whole entry): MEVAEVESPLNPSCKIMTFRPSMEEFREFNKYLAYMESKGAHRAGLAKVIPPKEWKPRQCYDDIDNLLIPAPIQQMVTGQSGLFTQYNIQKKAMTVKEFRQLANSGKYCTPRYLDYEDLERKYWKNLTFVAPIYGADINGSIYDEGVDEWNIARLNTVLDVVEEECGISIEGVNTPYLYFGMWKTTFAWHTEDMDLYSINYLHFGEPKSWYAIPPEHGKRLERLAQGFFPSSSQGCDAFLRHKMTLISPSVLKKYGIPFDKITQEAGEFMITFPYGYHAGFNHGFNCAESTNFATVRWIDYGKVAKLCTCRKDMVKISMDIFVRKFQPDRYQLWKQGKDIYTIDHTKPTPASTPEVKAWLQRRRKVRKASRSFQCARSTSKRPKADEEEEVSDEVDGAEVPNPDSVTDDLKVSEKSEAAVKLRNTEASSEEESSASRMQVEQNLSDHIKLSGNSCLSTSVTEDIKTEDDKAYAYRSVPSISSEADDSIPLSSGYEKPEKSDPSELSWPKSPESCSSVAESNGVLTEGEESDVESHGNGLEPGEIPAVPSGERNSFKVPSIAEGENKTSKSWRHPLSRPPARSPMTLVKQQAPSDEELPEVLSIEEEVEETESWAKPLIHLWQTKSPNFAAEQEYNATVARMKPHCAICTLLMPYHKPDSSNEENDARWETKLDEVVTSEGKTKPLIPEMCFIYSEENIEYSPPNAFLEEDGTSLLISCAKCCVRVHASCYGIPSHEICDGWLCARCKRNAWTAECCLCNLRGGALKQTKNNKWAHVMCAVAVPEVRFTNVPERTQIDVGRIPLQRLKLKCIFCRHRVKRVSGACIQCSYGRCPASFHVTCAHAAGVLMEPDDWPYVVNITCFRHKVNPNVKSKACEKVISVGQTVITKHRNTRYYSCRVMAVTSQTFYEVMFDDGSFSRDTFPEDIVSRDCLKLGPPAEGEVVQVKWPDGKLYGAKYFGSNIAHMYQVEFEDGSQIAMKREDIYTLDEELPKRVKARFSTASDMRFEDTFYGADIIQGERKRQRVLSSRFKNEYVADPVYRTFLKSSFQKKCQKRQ

[2] = molecular target: T2, Lysine-specific demethylase 4E (Homo sapiens, UniProt B2RXH2); experiment: Inhibition of human KDM4E (1 to 378 residues) catalytic domain measured formaldehyde dehydrogenase (FDH)-coupled fluorescence assay
T2 sequence (B2RXH2 whole entry): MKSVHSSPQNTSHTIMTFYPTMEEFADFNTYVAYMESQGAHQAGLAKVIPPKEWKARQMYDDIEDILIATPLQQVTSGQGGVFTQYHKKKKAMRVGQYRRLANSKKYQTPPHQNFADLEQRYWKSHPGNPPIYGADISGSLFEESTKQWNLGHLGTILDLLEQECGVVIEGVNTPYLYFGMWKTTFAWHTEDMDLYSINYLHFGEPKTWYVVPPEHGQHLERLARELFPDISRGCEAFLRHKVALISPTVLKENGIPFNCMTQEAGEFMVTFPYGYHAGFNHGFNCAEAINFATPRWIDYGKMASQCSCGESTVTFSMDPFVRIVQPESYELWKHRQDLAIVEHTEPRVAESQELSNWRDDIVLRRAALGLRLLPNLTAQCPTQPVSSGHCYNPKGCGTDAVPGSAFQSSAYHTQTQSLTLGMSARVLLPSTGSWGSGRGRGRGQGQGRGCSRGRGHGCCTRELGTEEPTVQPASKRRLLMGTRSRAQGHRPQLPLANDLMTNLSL

[3] = molecular target: T3, Lysine-specific demethylase 4A (Homo sapiens, UniProt O75164)
T3 sequence (O75164 whole entry): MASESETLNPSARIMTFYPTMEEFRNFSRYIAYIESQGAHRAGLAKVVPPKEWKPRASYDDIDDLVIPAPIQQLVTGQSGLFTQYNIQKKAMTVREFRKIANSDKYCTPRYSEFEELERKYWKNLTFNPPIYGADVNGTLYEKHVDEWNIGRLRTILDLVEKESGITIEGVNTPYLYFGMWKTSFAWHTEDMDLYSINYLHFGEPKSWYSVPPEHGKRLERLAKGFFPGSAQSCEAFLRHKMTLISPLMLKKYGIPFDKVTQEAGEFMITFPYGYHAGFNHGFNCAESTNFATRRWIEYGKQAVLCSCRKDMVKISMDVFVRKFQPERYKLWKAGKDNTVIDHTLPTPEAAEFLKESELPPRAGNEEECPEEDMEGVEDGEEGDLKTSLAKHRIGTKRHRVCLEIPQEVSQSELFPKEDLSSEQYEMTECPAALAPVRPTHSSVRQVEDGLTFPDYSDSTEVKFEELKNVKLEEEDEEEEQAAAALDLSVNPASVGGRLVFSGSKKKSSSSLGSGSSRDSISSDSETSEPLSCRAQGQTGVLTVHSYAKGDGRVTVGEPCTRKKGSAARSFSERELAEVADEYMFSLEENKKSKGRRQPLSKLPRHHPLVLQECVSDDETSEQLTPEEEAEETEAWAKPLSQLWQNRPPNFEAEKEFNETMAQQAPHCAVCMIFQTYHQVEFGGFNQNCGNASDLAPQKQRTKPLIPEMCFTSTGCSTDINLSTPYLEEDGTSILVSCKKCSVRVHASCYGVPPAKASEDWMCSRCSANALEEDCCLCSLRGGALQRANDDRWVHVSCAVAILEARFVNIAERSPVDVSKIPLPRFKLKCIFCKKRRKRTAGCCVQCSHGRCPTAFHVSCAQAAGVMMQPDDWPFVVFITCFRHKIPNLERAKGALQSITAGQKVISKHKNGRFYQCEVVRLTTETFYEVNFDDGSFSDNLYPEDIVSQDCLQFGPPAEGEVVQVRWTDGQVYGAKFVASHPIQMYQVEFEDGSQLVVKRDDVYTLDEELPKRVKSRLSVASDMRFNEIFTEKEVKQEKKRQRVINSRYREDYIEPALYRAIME

IC50 [1]: 4 µM
IC50 [2]: 4 µM
IC50 [3]: 4 µM
SMILES: COC(=O)Cc1cc(O)n(-c2nc3ccccc3[nH]2)n1
